# Measured values: patent US7683044B2, “Sphingomyelin therapy of autoimmune disease” (Center for Molecular Medicine and Immunology, priority 1999, dated 2010)
# Like-named read-outs stand apart in the source and are kept apart here.
# What was measured:
# [1] = test system: progressive rheumatoid arthritis; format: in vivo, human
# Text: A person, with severe progressive rheumatoid arthritis of the finger joints, wrists, and elbows, has failed therapy with methotrexate, and obtains only minor relief when placed on Enbrel therapy.
# [2] = test system: Primary Sjogren's Syndrome (pSS); assay: Therapy of primary Sjogren's syndrome with rituximab combined with sphingomyelin (Example 4); format: in vivo, human
# Procedure: They then receive a course of rituximab (Rituxan, Genentech) at 600 mg infused over 6 hours every other week for 3 doses, combined with weekly infusions of sphingomyelin at doses of 400 mg for 6 weeks. During this therapy, only 15 mg prednisolone is continued as a maintenance therapy. After the first rituximab infusion, their circulating B-cells are measured to be depleted by 90%, which continues for about 8 months. Their main subjective symptoms of dry mouth and eyes show improvement, as well as their parotid gland reduction is noted, and also an improvement in their dry cough and purpura. An improvement of the objective parameters of dry eyes and dry mouth is also observed, and this improvement is maintained for at least 3 months after this therapy course. The combination of sphingomyelin with apoptosis-inducing agent is shown to be synergistic for treatment of pSS.
# [3] = test system: Systemic Lupus Erythematosus (SLE); assay: Therapy of systemic lupus erythematosus with sphingomyelin, epratuzumab and prednisolone (Example 2); format: in vivo, human
# Text: patient two is a person with two healthy children, and with a history of SLE for at least 8 years. They have received prior cyclophosphamide, azathioprine, and corticosteroid treatments, with recurrent activity flares resulting in increasing disability. They have had evidence of myelosuppression, with lymphopenia, resulting in tapering of their medications. Prior to receiving the current experimental therapy, they are confirmed to have a diagnosis of SLE according to the American College of Rheumatology revised criteria, and moderately active disease (a score of 10 for total British Isles Lupus Assessment Group (BILAG) disease activity) at study entry. Their current medication of prednisolone, 15 mg/day, is continued, and they receive epratuzumab (anti-CD22 humanized monoclonal antibody) i.v. at 360 mg/m^2 once weekly every other week for a total of 4 infusions. Prior to each infusion, they are medicated with acetaminophen (Tylenol) and antihistamine (Benadryl). They are also given an infusion of 300 mg sphingomyelin twice weekly for 8 weeks. Two and 6 weeks after completion of this therapy, they are evaluated, and it is decided that their prednisolone doses of 15 mg/day can be tapered to 10 mg/day, because of initial evidence of improvement of their BILAG scores in 3 of the 8 body systems. Four weeks later, the SLE panel of tests (autoantibodies, C3, C-reactive protein, erythrocyte sedimentation rate), and physical examination indicate progressive improvement, with less fatigue, lethargy, malaise, anorexia, reduction of malar erythemia, and reduction of arthritis. They are considered to have about a 40% improvement of their condition as a result of the investigational therapy.
# rheumatoid arthritis [4] = assay: Therapy of rheumatoid arthritis with adalimumab combined with sphingomyelin (Example 3); format: in vivo, human
# Procedure: A person with 3 healthy children presents with a history of rheumatoid arthritis (RA) for 9 years, and a prior therapy history of methotrexate, leflunomide, prednisolone, sometimes in combination. They continue on their methotrexate (10 mg) and prednisolone (10 mg) daily doses, and is now given the TNF antagonist, adalimumab (Humira, Abbott Laboratories) subcutaneously at 40 mg every other week, combined with weekly infusions of sphingomyelin at a dose of 400 mg. This therapy is continued for 12 weeks, and they are evaluated for response every 4 weeks after completion of their course of therapy by ACR 20%, 50% and 70% scoring, and EULAR responses.
# [5] = test system: B-cells isolated from individuals with autoimmune disease; assay: MTT cell viability, sphingomyelin enhancement of chemotherapy on B-cells (Example 5); format: cell-based, human
# Procedure: (§1) Sphingomyelin enhancement of chemotherapy is evaluated by measuring its effect on 5-fluorouracil or doxorubicin (DOX) treatment of B-cells isolated from individuals with autoimmune disease and grown in culture. Cell viability is measured using the dye MTT (3-(4,5-dimethylthiazol-2-yl)-2,5-diphenyl tetrazolium bromide) in a 24-well chamber format. See Mosmann, T., J. Immunol. Methods, 65:55-63 (1983). B-cells are maintained in RPMI media supplemented with 10% fetal calf serum. Human umbilical cord venous endothelial cells (HUVEC) from pooled donors (Clonetics/BioWhittaker, San Diego, Calif.) are used as controls. Cells (10^4/well) are plated in the presence of varying concentrations of drug and sphingomyelin and grown in a humidified incubator. As an additional control, egg yolk phosphatidylcholine (PC) (Sigma, St. Louis, Mo.) is added to the cells instead of sphingomyelin. Drugs and lipids are added to HUVEC cells 24 hours after plating, but otherwise are treated the same. After four days, the media is replaced with media containing 0.5 mg/ml MTT and incubated two to four hours at 37° C. An equal volume of 0.04 N HCl in isopropanol is added, and the absorbance at 570 nm is measured. The IC50 values, defined as the concentration of drug necessary to reduce cell viability by 50%, from three to seven independent experiments are averaged and compared using ANOVA.
# [6] = test system: chronic idiopathic thrombocytopenia purpura; assay: Treatment of a patient with chronic idiopathic thrombocytopenia purpura (Example 6); format: in vivo, human
# Procedure: A person with chronic idiopathic thrombocytopenia purpura has been treated with gamma globulins and high-dose dexamethasone, but the disease progresses. They undergo splenectomy, which fails to stabilize the disease. Their platelet count falls to less than 20,000/microliter, and hemorrhagic events increase in frequency. The patient is then treated with epratuzumab, 480 mg intravenously each week, plus 400 mg/wk of sphingomyelin, for a period of six weeks. Four weeks after the last dose of epratuzumab and sphingomyelin, platelet number is increased by 300%, and the hemorrhagic events disappear.
# [7] = test system: Human umbilical cord venous endothelial cells (HUVEC); assay: MTT cell viability, control HUVEC cells (Example 5); format: cell-based
# Procedure: as §1
# rheumatoid arthritis [8] = assay: Therapy of rheumatoid arthritis with sphingomyelin, patient one (Example 1); format: in vivo, human
# Procedure: Various forms of sphingomyelin can be obtained in powder form from Sigma Chemicals (St. Louis, Mo.). Mix 1 g of sphingomyelin powder with 9.5 ml of sterile saline or phosphate buffered saline (PBS) and QS to 10 ml. Sonicate the resulting suspension in a water bath at 80-90° C. for 1 hour. The suspension should be administered within one hour of sonication and should be approximately room temperature (25-30° C.). The suspension can be stored at 4° C.; however, it should be re-sonicated for 30 minutes in a water bath at 80-90° C. before administration. […] They have a history of rheumatoid arthritis (RA) that presented about 5 years ago, and has undergone numerous treatments with corticosteroids, cyclophosphamide, and methotrexate, with responses of reduced durations and then relapses. They now present to their rheumatologist with active RA as judged by the presence of 5 tender and 4 swollen joints (out of 44 examined), morning stiffness for more than 45 minutes, an elevated erythrocyte sedimentation rate (ESR) of 40 mm/h (Westergren method), and an elevated C-reactive protein (CRP) blood level of 80 mg/L, as well as increased levels of rheumatoid factor (RF) of IgM, IgG, and IgA isotypes. All other laboratory tests, except circulating red blood cells (mild anemia), are within the normal range. They have been taking a nonsteroidal anti-inflammatory drug (NSAID; ibuprofen), 20 mg/day of prednisolone, and doses of cyclophosphamide i.v. (750 mg). The patient is allowed to continue on these medications, and is also given i.v. infusions of sphingomyelin (prepared as described above) in phosphate-buffered sterile saline and QS twice weekly at doses of 400 mg, continuing for 3 weeks. […] The patient is considered to have improved upon adding sphingomyelin i.v. therapy to their prior medications, to which they relapsed. Subsequently, they have their prednisolone maintenance therapy tapered to 5 mg daily with 200 mg sphingomyelin given 3 times weekly for 8 weeks, and is able to function as before without any deterioration of their condition, with increase in their physical activities and general reduction in joint pain and swelling.
# myasthenia gravis = assay: Treatment of a patient with myasthenia gravis, epratuzumab plus sphingomyelin (Example 8); format: in vivo, human
# Procedure: A person has failed all conventional therapy for myasthenia gravis, and is admitted to a neurological intensive therapy unit. The patient is stabilized by plasma exchange, and is given intravenous immunoglobulin to reduce the titer of anti-acetylcholine receptor antibody. The patient remains bedridden, and is then treated with epratuzumab, 600 mg intravenously each week, plus 400 mg/wk of sphingomyelin, for a period of six weeks. […] Two months after the last treatment the patient is mobile, and is released from the hospital.
# [9] = B-cells, MTT after four days, from IC50 values of drug
substance,measurement,setting,value
veltuzumab: anti-CD20 humanized Mab,human anti-veltuzumab antibodies,"[1]; human, in vivo",No human anti-veltuzumab antibodies are observed
"rituximab: Rituximab (Rituxan, anti-CD20) antibody [reference compound]",depletion of circulating B-cells,"[2]; after the first rituximab infusion (600 mg), combined with weekly sphingomyelin 400 mg",90%
same,duration of circulating B-cell depletion,[2]; rituximab 600 mg every other week x3 + sphingomyelin 400 mg weekly for 6 weeks,about 8 months
sphingomyelin,"improvement of BILAG scores, number of body systems",[3]; 2 and 6 weeks after sphingomyelin 300 mg twice weekly for 8 weeks + epratuzumab 360 mg/m^2 x4 + prednisolone 15 mg/day,3 of the 8 body systems
same,improvement of condition,"[3]; four weeks later, sphingomyelin + epratuzumab + prednisolone",~40%
same,combination effect with prednisolone and epratuzumab,[3]; more effective than either agent alone,synergistic effect
same,overall response,"rheumatoid arthritis [4]; 6-month evaluation, anti-TNF therapy combined with sphingomyelin",good response
same,ACR response,"rheumatoid arthritis [4]; end of 12-week course, sphingomyelin 400 mg weekly + adalimumab 40 mg s.c. every other week + methotrexate, prednisolone",ACR50 improvement
same,EULAR response,"rheumatoid arthritis [4]; end of 12-week course, sphingomyelin + adalimumab + methotrexate, prednisolone",moderate EURAR response
same,tolerability of therapy,"rheumatoid arthritis [4]; sphingomyelin 400 mg weekly + adalimumab, 12 weeks",tolerated well
same,increase of 5FU sensitivity,[5]; [9],140%
same,increase of DOX sensitivity,[5]; [9],340%
same,duration of improvement after therapy course,[2]; rituximab + sphingomyelin,at least 3 months
same,objective parameters of dry eyes and dry mouth,"[2]; rituximab + sphingomyelin 400 mg weekly for 6 weeks, prednisolone 15 mg maintenance",improvement
same,combination effect with apoptosis-inducing agent,[2]; sphingomyelin with rituximab,synergistic
same,hemorrhagic events,[6]; four weeks after last dose of epratuzumab and sphingomyelin,disappear
same,increase of platelet number,"[6]; four weeks after last dose, epratuzumab 480 mg i.v. weekly + sphingomyelin 400 mg/wk for six weeks",300%
same,disease status,[6]; three months after the last treatment,full remission
same,sensitization to 5FU or DOX therapy,[7],does not sensitize
same,improvement in measures of disease activity,[1]; 6 months after the second therapy with veltuzumab and sphingomyelin,70%
same,improvement in measures of disease activity,"[1]; after 3 weeks, veltuzumab 80 mg i.v. weekly + sphingomyelin 400 mg/wk for eight weeks",30%
same,duration for which the improvement is maintained,[1]; after first course of veltuzumab + sphingomyelin,6 months
same,normal B-cells in the blood,[1]; veltuzumab + sphingomyelin,significantly reduced
same,"ESR, CRP and RF factor levels above the normal range","rheumatoid arthritis [8]; 4 and 6 months after onset, therapy of prednisolone, NSAID and sphingomyelin repeated at 3 months",about 20%
same,reduction of joint stiffness and swelling compared to baseline,"rheumatoid arthritis [8]; 4 and 6 months after onset, therapy repeated at 3 months",about 50%
same,improvement in the ACR20 score,"rheumatoid arthritis [8]; 4 and 6 weeks after sphingomyelin 400 mg i.v. twice weekly for 3 weeks, added to ibuprofen, prednisolone, cyclophosphamide",20%
same,"improvement in the elevated CRP, RF and ESR levels","rheumatoid arthritis [8]; 4 and 6 weeks after sphingomyelin 400 mg i.v. twice weekly for 3 weeks, added to prior medications",about 50%
same,joint stiffness in the morning,"rheumatoid arthritis [8]; 4 and 6 weeks later, baseline more than 45 minutes",less than 15 minutes
same,combination effect with standard anti-rheumatoid therapeutic agents,rheumatoid arthritis [8]; compared with either sphingomyelin or standard agents alone,more than additive effect
same,drop in B-lymphocytes,"myasthenia gravis; one week after last treatment, epratuzumab 600 mg i.v. weekly + sphingomyelin 400 mg/wk for six weeks",50%
same,titer of the anti-acetylcholine (receptor antibody),"myasthenia gravis; one week after last treatment, epratuzumab + sphingomyelin",significant drop
same,clinical status,myasthenia gravis; two months after the last treatment,mobile
"phosphatidylcholine [PC, reference compound]","enhancement of chemosensitivity (5FU, DOX)",[5]; lipid control added to the cells instead of sphingomyelin,does not elicit a similar effect
